Test results taken from PMC6017631, “The Effect of Combining Natural Terpenes and Antituberculous Agents against Reference and Clinical Mycobacterium tuberculosis Strains” (Molecules : A Journal of Synthetic Chemistry and Natural …, 2018).
Converted amounts (≈) assume the structure as drawn. Read-outs that look alike come from different tables or passages of the source. Marks after values point to notes of the source that are not given here.

Columns and labels:
[1] = test system: Mtb H37Ra ATTC 25177; assay: MIC determination, serial dilution in Middlebrook 7H9, and FICI; format: cell-based, Mycobacterium tuberculosis
[2] = test system: clinical isolate 253/16; assay: microbe, parasite or virus in culture; format: cell-based, Mycobacterium tuberculosis
[3] = test system: clinical isolate 192 (susceptible); assay: microbe, parasite or virus in culture; format: cell-based, Mycobacterium tuberculosis
[4] = test system: GMK cells; assay: Cytotoxicity, MTT assay; format: cell-based, African green monkey; details: GMK cells, 48 h exposure, MTT; highest tested concentration 500 μg/mL
Procedure: (§1) The cytotoxicity experiment was performed using African green monkey kidney epithelial cells (GMK) obtained from BIOMED-Lublin S.A. (Lublin, Poland). The cells were cultured in EMEM medium (ATCC-LGC Standards, Cumberland, ME, USA) supplemented with 10% foetal bovine serum (FBS, Pan-Biotech, Aidenbach, Germany), penicillin (100 U/mL), and streptomycin (100 μg/mL) (Sigma-Aldrich, St. Louis, MO, USA). The GMK cells were maintained at 37 °C in a humidified atmosphere of 5% CO2 and 95% air. The GMK cells were seeded in 96-multiwell plates in 100 μL of the complete EMEM medium at a concentration of 3 × 10^5 cells/mL (3 × 10^4 cells/well) and the plates were maintained at 37 °C for 24 h. Then, the culture medium was replaced with 100 µL of different concentrations of tested agents and 2 reference anti-mycobacterial drugs—rifampicin and isoniazid. The stock solutions of all compounds were prepared in DMSO (Sigma-Aldrich, St. Louis, MO, USA), thus the highest solvent concentrations (1% and 0.5% DMSO) used in the experiment were tested in parallel to exclude potential toxicity associated with the use of DMSO. Different concentrations of the tested agents were obtained by six serial 2-fold dilutions using culture medium (the highest tested concentration was equal 500 µg/mL). GMK cells maintained in culture medium without anti-mycobacterial agent served as a negative control of cytotoxicity. The cells were exposed to tested compounds and reference drugs for 48 h, then cytotoxicity test was performed using MTT assay (Sigma-Aldrich, St. Louis, MO, USA) as it was described previously. The cytotoxicity test was repeated in three separate experiments (n = 3) and each experiment was carried out in quadruplicate. The IC50 values (concentration reducing viability of GMK cells by 50%) were determined using GraphPad Prism 5, Version 5.03 software (GraphPad Software, Inc., La Jolla, CA, USA).

[5] = test system: H37RV ATTC 25618; assay: MIC determination, serial dilution in Middlebrook 7H9, and FICI; format: cell-based, Mycobacterium tuberculosis
[6] = Cytotoxicity, MTT assay; format: cell-based, African green monkey; details: African green monkey; for IC50 at 48 h: GMK cells, 48 h exposure, MTT, highest tested concentration 500 μg/mL
Procedure: as §1

[7] = test system: reference virulent strain H37Rv; design: method as in PMID 26400221; details: Alamar Blue technique, 8 days of incubation ref 36; cited from earlier work
[8] = test system: Vero cell line; details: cited from earlier work
[9] = compounds tested separately, 253/16
[10] = compounds tested separately, 192
[11] = compounds tested separately, H37Rv
[12] = Mycobacterium tuberculosis, compounds tested separately, read-out: MIC
[13] = Mycobacterium tuberculosis, compounds tested separately, H37Rv, read-out: MIC
[14] = GMK cells (African green monkey kidney epithelial cells)
[15] = Mycobacterium tuberculosis, H37RV
[16] = Mycobacterium tuberculosis, subinhibitory concentration of the terpene, read-out: MIC for EMB in a Presence of Terpenes
[17] = Mycobacterium tuberculosis, subinhibitory concentration of the terpene, read-out: MIC for INH in a Presence of Terpenes
[18] = Mycobacterium tuberculosis, subinhibitory concentration of the terpene, read-out: MIC for RMP in a Presence of Terpenes
[19] = Mycobacterium tuberculosis, read-out: MIC for EMB in a Presence of Terpenes
[20] = Mycobacterium tuberculosis, read-out: MIC for INH in a Presence of Terpenes
[21] = Mycobacterium tuberculosis, read-out: MIC for RMP in a Presence of Terpenes
[22] = Mycobacterium tuberculosis, H37RV, read-out: MIC for INH in a Presence of Terpenes
[23] = Mycobacterium tuberculosis, H37Rv, subinhibitory concentration of the terpene, read-out: MIC for EMB in a Presence of Terpenes
[24] = Mycobacterium tuberculosis, H37Rv, subinhibitory concentration of the terpene, read-out: MIC for RMP in a Presence of Terpenes

Compound: C=C(C)[C@H]1CC=C(C)CC1 [(R)-limonene]
- MIC ([1]; compounds tested separately): 32 µg/mL
- MIC [2, 9]: 256 µg/mL (≈ 1880 µM)
- MIC [3, 10]: 128 µg/mL (≈ 940 µM)
- IC50 (cytotoxicity) [4]: >500 µg/mL
- MIC [5, 11]: 128 µg/mL

Compound: CC[C@@H](CO)NCCN[C@@H](CC)CO [EMB, ethambutol, reference compound]
- MIC [1, 12]: 4 µg/mL
- MIC ([2]; Mycobacterium tuberculosis): 64 µg/mL (≈ 313 µM)
- MIC ([3]; Mycobacterium tuberculosis): < 0.125 µg/mL
- MIC [5, 13]: 0.25 µg/mL

Compound: NNC(=O)c1ccncc1 [INH, isoniazid, reference compound]
- MIC [1, 12]: 0.125 µg/mL
- MIC ([2]; Mycobacterium tuberculosis): 8 µg/mL (≈ 58.3 µM)
- MIC ([3]; Mycobacterium tuberculosis): < 0.125 µg/mL
- IC50 at 48 h [6, 14]: > 500 µg/mL
- MIC [5, 15]: < 0.125 µg/mL

Compound: CO[C@H]1/C=C/O[C@@]2(C)Oc3c(C)c(O)c4c(O)c(c(/C=N/N5CCN(C)CC5)c(O)c4c3C2=O)NC(=O)/C(C)=C\C=C\[C@H](C)[C@H](O)[C@@H](C)[C@@H](O)[C@@H](C)[C@H](OC(C)=O)[C@@H]1C [RMP, rifampicin, reference compound]
- MIC [1, 12]: 1 µg/mL
- MIC ([2]; Mycobacterium tuberculosis): 4 µg/mL (≈ 4.86 µM)
- MIC ([3]; Mycobacterium tuberculosis): < 0.125 µg/mL
- IC50 at 48 h [6, 14]: 142 µg/mL (≈ 172 µM)
- MIC [5, 13]: 0.25 µg/mL

Compound: CC(C)=CCC[C@](C)(O)C1CC=C(C)CC1 (stereo partly drawn) [bisabolol]
- MIC ([1]; compounds tested separately): 64 µg/mL
- MIC [2, 9]: 128 µg/mL (≈ 576 µM)
- MIC [3, 10]: 16 µg/mL (≈ 72 µM)
- IC50 (cytotoxicity) [4]: 71.12 µg/mL (≈ 320 µM)
- MIC [5, 11]: 16 µg/mL

Compound: Cc1ccc(C(C)C)cc1O [carvacrol]
- MIC [7]: 2.02 µg/mL (≈ 13.4 µM)

Compound: C=CC(=C)CCC=C(C)C [myrcene]
- MIC [1, 12]: 128 µg/mL
- MIC [1, 16]: 0.5 µg/mL
- MIC [1, 17]: 0.0625 µg/mL
- MIC [1, 18]: 0.125 µg/mL
- MIC ([2]; Mycobacterium tuberculosis): > 512 µg/mL
- MIC [2, 19]: 64 µg/mL
- MIC [2, 20]: 8 µg/mL
- MIC [2, 21]: 4 µg/mL
- MIC ([3]; Mycobacterium tuberculosis): 256 µg/mL (≈ 1880 µM)
- MIC [3, 19]: < 0.125 µg/mL
- MIC [3, 20]: < 0.125 µg/mL
- MIC [3, 21]: < 0.125 µg/mL
- MIC [5, 15]: 256 µg/mL
- MIC [5, 22]: < 0.125 µg/mL
- MIC [5, 23]: 0.25 µg/mL
- MIC [5, 24]: 0.25 µg/mL
- IC50 (cytotoxicity) ([8]; determined on Vero cell Line ref 31): 200 * μg/mL
- cytotoxic activity ([8]; up to a concentration of 200 μg/mL, Vero cell line ref 33): did not present cytotoxic activity

Compound: Cc1ccc(C(C)C)cc1 [p-cymene]
- MIC [7]: 91 µg/mL (≈ 678 µM)

Compound: C=C1CCC2(C(C)C)CC12 (stereo not drawn) [sabinene]
- MIC [1, 12]: 64 µg/mL
- MIC [1, 16]: 0.5 µg/mL
- MIC [1, 17]: 0.0625 µg/mL
- MIC [1, 18]: 0.0625 µg/mL
- MIC ([2]; Mycobacterium tuberculosis): 256 µg/mL (≈ 1880 µM)
- MIC [2, 19]: 64 µg/mL
- MIC [2, 20]: 8 µg/mL
- MIC [2, 21]: 4 µg/mL
- MIC ([3]; Mycobacterium tuberculosis): 128 µg/mL (≈ 940 µM)
- MIC [3, 19]: < 0.125 µg/mL
- MIC [3, 20]: < 0.125 µg/mL
- MIC [3, 21]: < 0.125 µg/mL
- IC50 at 48 h [6]: 348 µg/mL (≈ 2550 µM)
- MIC [5, 15]: 128 µg/mL
- MIC [5, 22]: < 0.125 µg/mL
- MIC [5, 23]: 0.25 µg/mL
- MIC [5, 24]: 0.25 µg/mL

Compound: Cc1ccc(C(C)C)c(O)c1 [thymol]
- MIC [7]: 0.78 µg/mL (≈ 5.19 µM)

Compound: CC1=CCC2CC1C2(C)C (stereo not drawn) [α-pinene]
- MIC [1, 12]: 128 µg/mL
- MIC [1, 16]: 1 µg/mL
- MIC [1, 17]: 0.125 µg/mL
- MIC [1, 18]: 0.0625 µg/mL
- MIC ([2]; Mycobacterium tuberculosis): 256 µg/mL (≈ 1880 µM)
- MIC [2, 19]: 32 µg/mL
- MIC [2, 20]: 8 µg/mL
- MIC [2, 21]: 4 µg/mL
- MIC ([3]; Mycobacterium tuberculosis): 128 µg/mL (≈ 940 µM)
- MIC [3, 19]: < 0.125 µg/mL
- MIC [3, 20]: < 0.125 µg/mL
- MIC [3, 21]: < 0.125 µg/mL
- IC50 at 48 h [6, 14]: > 500 µg/mL
- viability at 48 h, 500 µg/mL ([6]; GMK cells (African green monkey kidney epithelial cells), exposure to the highest tested concentration (500 μg/mL)): ~90%
- MIC [5, 15]: 128 µg/mL
- MIC ([5]; Mycobacterium tuberculosis, H37RV, read-out: MIC for EMB in a Presence of Terpenes): 0.125 µg/mL
- MIC [5, 22]: < 0.125 µg/mL
- MIC [5, 24]: 0.25 µg/mL

Compound: C=C1CC/C=C(\C)CC[C@@H]2[C@@H]1CC2(C)C [β-caryophyllene]
- MIC [7]: 100 µg/mL (≈ 489 µM)

Compound: C=C[C@]1(C)CC[C@@H](C(=C)C)C[C@H]1C(=C)C [β-elemene]
- MIC ([1]; compounds tested separately): 32 µg/mL
- MIC [2, 9]: >512 µg/mL
- MIC [3, 10]: 256 µg/mL (≈ 1250 µM)
- MIC [5, 11]: 256 µg/mL

Compound: (S)-limonene
- MIC ([1]; compounds tested separately): 32 µg/mL
- MIC [2, 9]: >512 µg/mL
- MIC [3, 10]: 256 µg/mL
- IC50 (cytotoxicity) [4]: >500 µg/mL
- MIC [5, 11]: 256 µg/mL
